Results reported in article PMC10064330, “Reversible Dual-Covalent Molecular Locking of the 14-3-3/ERRγ Protein–Protein Interaction as a Molecular Glue Drug Discovery Approach” (Journal of the American Chemical Society, 2023).

Biological target: T1, 14-3-3γ/ERRγ complex (Homo sapiens, UniProt P61981+P62508)
T1 construct: made in house; host or cells: E. coli NiCo21 (DE3)
Test: FA compound titration in HEK293 cell lysate
Format: binding
Conditions: 2 mg mL^–1 HEK293 cell lysate, 5 μM 14-3-3γ, 100 nM ERRγ peptide; read-out: half-maximal complex concentration (CC50)
Description: The cell represents a complex biochemical environment composed of a high reducing potential, a pool of potential nucleophiles, and competing 14-3-3 interaction partners. To investigate molecular lock-induced complex formation in a reactive environment, we first investigated binary 14-3-3/ERRγ formation in the HEK293 cell lysate. Here, the HEK293 cell lysate was titrated to the preformed 14-3-3γ/ERRγ complex in an FA assay and incubated overnight (Figure S25a–c). […] Next, we investigated molecular lock 5-induced complex formation (Figures S25 and S26). […] Moreover, early observed cell lysate-induced abolishment of the 14-3-3γ/ERRγ complex formation was almost completely recovered upon addition of 5, to similar complex concentrations to that in the absence of the lysate. […]
Figure S25. […] (d -e) Fluorescence anisotropy studies of compound 5 (right) titrations or DMSO as negative control (left) to a preformed complex of 14 -3-3γ (5 µM, 0.16 mg/mL) and fluorescein labelled ERRγ peptide (100 nM) at various concentrations HEK293 cell lysate (up to 2 mg/mL). […]
Figure S26. […] Fluorescence anisotropy studies of compound 5 titrations (or DMSO as negative control) to a preformed complex of 14-3-3γ (5 µM) and fluorescein labelled ERRγ peptide (100 nM). Assay is performed in presence of various concentrations HEK293 cell lysate (up to 2 mg/mL) and is measured over time (every hour for 12 hours). […]

T1 sequence (P61981 whole entry, other chains not shown): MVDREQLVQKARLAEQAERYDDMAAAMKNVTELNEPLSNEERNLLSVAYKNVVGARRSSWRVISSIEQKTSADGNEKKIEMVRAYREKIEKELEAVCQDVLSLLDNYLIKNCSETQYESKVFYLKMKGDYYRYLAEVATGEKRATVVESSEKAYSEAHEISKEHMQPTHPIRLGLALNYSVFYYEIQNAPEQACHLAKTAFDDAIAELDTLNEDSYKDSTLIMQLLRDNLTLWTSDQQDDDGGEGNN

CN(C)CCSSCCN(C)C(=O)c1ccc(C=O)c(F)c1 [compound 5]
CC50: 240 µM
